Eleven molecules from patent publication US9561228B2 (Celgene Avilomics Research, Inc., priority 2013, dated 2017) can be followed below.

For assay [1], the system named is ERK1/2 phosphorylation of p90RSK in HT29 cells. The assay can be described thus: pRSK MSD Assay in HT29 cells. The class given is cell-based. The settings on record: Homo sapiens, HT-29, read-out: ERK1/ERK2 PRSK MSD HT29 EC50. The protocol: The protocol below describes an assay to measure the kinase activity of ERK1/2 to phosphorylate a substrate, p90RSK, in the presence or absence of a test compound. This experiment was conducted using a Mesoscale Discovery plate. The day before the assay, HT29 cells were split and plated at 50,000 cells/well in complete growth media. After allowing cells to adhere, the media was removed and replaced with media containing 0.1% FBS and incubated overnight. Blank MSD plates (Mesoscale Discovery, Cat # L15XA3) were coated with 25 μl/well RSK capture antibody (BD Biosciences, Cat. #610226) and incubated at 4° C. overnight, then blocked with 150 μl of 3% BSA solution. The next day, the media from the cell culture plate was removed and replaced with 100 μl of media containing a test compound and incubated for 120 minutes at 37° C. The media was removed and replaced with 55 μl per well of lysis buffer with protease inhibitors (Roche Biosciences, Cat. #11836170001) and phosphatase inhibitors (Sigma-Aldrich, Cat. # P-0044 and P-5726), followed by incubation at 4° C. for 30 minutes. 50 μl of lysate was transferred to a blocked MSD plate, followed by incubation at room temperature for 2 hours under constant shaking. The plate was washed 3 times with MSD wash buffer (Mesoscale Discovery, Cat. # R617TX), and 25 μl/well phospho-RSK (pRSK) detection antibody (Cell Signaling Technology, Cat. #9335) was added with Sulfo-tagged detection antibody (Mesoscale Discovery, Cat. # R32AB-1) diluted in 1% BSA in MSD wash buffer. This mixture was incubated for 1 hour at room temperature under constant shaking. The plate was washed 3 times, and 150 μl 1×MSD read buffer was added, followed by signal detection in an MSD plate reader.

The target of another assay is T1, MEK1 activated ERK1 (Homo sapiens, UniProt P27361).
T1 construct: purchased Millipore (Billerica, Mass.) 14-439-K
The assay can be described thus: Omnia continuous-read kinase assay for potency against MEK1 activated ERK1. The format is biochemical. The note with it: MEK1 activated ERK1, ATP at KM; read-out: ERK1 Omnia WT ATP KM IC50. The source says:
Omnia Assay Protocol for Potency Assessment Against MEK1 Activated ERK1:
The protocol below describes continuous-read kinase assays to measure potency of compounds against activated ERK1 enzyme. The mechanics of the assay platform are best described by the vendor (Invitrogen, Carlsbad, Calif.) on their website at the following URL: invitrogen.com/site/us/en/home.html.
Briefly, a 1.25× stock of ERK1 enzyme (14-439-K) from Millipore (Billerica, Mass.), 5×ATP (AS001A) and ST17-Sox conjugated peptide substrate (KNZ1171C) were prepared in 1× kinase reaction buffer consisting of 20 mM Tris, pH 7.5, 5 mM MgCl2, 1 mM EGTA, 5 mM β-glycerophosphate, 5% glycerol (10× stock, KB002A) and 0.2 mM DTT. 10 μL of ATP/ST17-sox peptide substrate mix was combined with 0.5 μL volume of 100% DMSO and serially diluted compounds were prepared in 100% DMSO in a Corning (#3574) 384-well, white, non-binding surface microtiter plate (Corning, N.Y.). Kinase reactions were started with the addition of 40 μL of ERK1 solution and monitored every 71 seconds for 30-240 minutes at λex360/λem485 in a Synergy plate reader from BioTek (Winooski, Vt.). At the conclusion of each assay, progress curves from each well were examined for linear reaction kinetics and fit statistics (R^2, 95% confidence interval, absolute sum of squares). Initial velocity (0 minutes to ˜30+ minutes) from each reaction was determined from the slope of a plot of relative fluorescence units vs time (minutes or seconds) and then plotted against inhibitor concentration to estimate ^AppIC50 from log [Inhibitor] vs Response, Variable Slope model in GraphPad Prism from GraphPad Software (San Diego, Calif.).
[Reagent] used in optimized protocol:
[ERK1]=4 nM, [ATP]=50 μM, [ST17-Sox]=10 μM (ATP ^appKM 48 μM)
The results of this assay show the degree of inhibition of ERK activity, which is a direct measurement of inhibition of ERK activity. Results from this assay are reported in Table A under the column “ERK1 Omnia WT ATP KM IC50 (nM).”

Molecules are shown by their SMILES. Where only a bound is given, the exact number is not on record here.

T1 sequence (P27361 whole entry): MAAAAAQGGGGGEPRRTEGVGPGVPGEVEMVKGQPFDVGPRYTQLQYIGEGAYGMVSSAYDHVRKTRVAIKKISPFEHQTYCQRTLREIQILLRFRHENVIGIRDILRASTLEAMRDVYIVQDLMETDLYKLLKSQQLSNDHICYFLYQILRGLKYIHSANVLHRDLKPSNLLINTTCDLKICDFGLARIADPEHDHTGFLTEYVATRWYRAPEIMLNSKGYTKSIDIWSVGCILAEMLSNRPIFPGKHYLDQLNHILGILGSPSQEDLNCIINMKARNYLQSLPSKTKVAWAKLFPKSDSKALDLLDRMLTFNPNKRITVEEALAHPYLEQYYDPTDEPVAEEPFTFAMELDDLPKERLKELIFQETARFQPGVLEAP

As a reminder, the IC50 is the concentration that gives 50% inhibition. Consider `C=CC(=O)Nc1ccc(C)cc1Nc1nc(NC2CCC(=O)CC2)ncc1C(F)(F)F` [Compound I-39, N-(4-Methyl-2-((2-((4-oxocyclohexyl)amino)-5-(trifluoromethyl)pyrimidin-4-yl)amino)phenyl)acrylamide], for which, in assay [1], the EC50 lay in the range of 0.501 to 0.999 µM. The IC50 at MEK1 activated ERK1 lay in the range of 0.101 to 0.5 µM.

Turning to `C=CC(=O)Nc1ccccc1Nc1nc(NC2CCCCC2)ncc1Cl` [Compound I-107, N-(2-((5-chloro-2-(cyclohexylamino)pyrimidin-4-yl)amino)phenyl)acrylamide], in assay [1], the EC50 was 0.101 to 0.5 µM. Moreover, on MEK1 activated ERK1, the IC50 lay within 0.101 to 0.5 µM.

As for `C=CC(=O)Nc1ccccc1Nc1nc(Nc2cc(C(=O)NOCCO)ccc2C)ncc1Cl` [Compound I-198, 3-((4-((2-acrylamidophenyl)amino)-5-chloropyrimidin-2-yl)amino)-N-(2-hydroxyethoxy)-4-methylbenzamide], in assay [1], the EC50 was 0.101 to 0.5 µM. The half-maximal inhibitory concentration (IC50) at MEK1 activated ERK1 was 0.101 to 0.5 µM.

Consider `C=CC(=O)Nc1ccccc1Nc1nc(Nc2cc(NC(=O)CCCC(=O)NCCCOCCOCCOCCCNC(=O)CCCC[C@@H]3SC[C@@H]4NC(=O)N[C@@H]43)cc(C(N)=O)c2)ncc1Cl` [Compound I-304, N^1-(3-((4-((2-acrylamidophenyl)amino)-5-chloropyrimidin-2-yl)amino)-5-carbamoylphenyl)-N^5-(15-oxo-19-((3aS,4S,6aR)-2-oxohexahydro-1H-thieno[3,4-d]imidazol-4-yl)-4,7,10-trioxa-14-azanonadecyl)glutaramide], for which the EC50 in assay [1] is greater than 1 µM. For the same molecule, the concentration for half-maximal inhibition (IC50) on MEK1 activated ERK1 is 0.101 to 0.5 µM.

For the molecule `C=C(C)S(=O)(=O)Nc1cc(F)ccc1Nc1nc(Nc2cc(C(N)=O)ccc2C)ncc1C(F)(F)F` [Compound I-87, 3-((4-((4-Fluoro-2-(1-methylvinylsulfonamido)phenyl)amino)-5-(trifluoromethyl)pyrimidin-2-yl)amino)-4-methylbenzamide], the EC50 in assay [1] is greater than 1 µM. For the same molecule, the concentration for half-maximal inhibition (IC50) at MEK1 activated ERK1 was 0.101 to 0.5 µM.

Consider `C=CC(=O)Nc1ccccc1Nc1nc(Nc2cc(C(=O)NOCCO)ccc2C#N)ncc1C(F)(F)F` [Compound I-75, 3-((4-((2-Acrylamidophenyl)amino)-5-(trifluoromethyl)pyrimidin-2-yl)amino)-4-cyano-N-(2-hydroxyethoxyl)benzamide], for which the EC50 in assay [1] is greater than 1 µM. The 50% inhibitory concentration (IC50) on MEK1 activated ERK1 is 0.101 to 0.5 µM.

As for `C=CC(=O)Nc1ccccc1Nc1nc(Nc2cc(C(=O)NOC)ccc2OC)ncc1Cl` [Compound I-187, 3-((4-((2-acrylamidophenyl)amino)-5-chloropyrimidin-2-yl)amino)-N,4-dimethoxybenzamide], in assay [1], the EC50 was in the range of 0.101 to 0.5 µM. Moreover, the IC50 on MEK1 activated ERK1 fell in the range of 0.101 to 0.5 µM.

As for `C=CC(=O)N[C@@H]1CCCC[C@H]1Nc1nc(Nc2cc(C(N)=O)ccc2C)ncc1Cl` (racemic) [Compound I-226, Rac-trans-3-((4-((2-acrylamidocyclohexyl)amino)-5-chloropyrimidin-2-yl)amino)-4-methylbenzamide], in assay [1], the EC50 lay within 0.501 to 0.999 µM. On MEK1 activated ERK1, the half-maximal inhibitory concentration (IC50) fell in the range of 0.501 to 0.999 µM.

As for `C#CC(=O)NCCCOc1cc(C)c(Nc2ncc(Cl)c(Nc3ccccc3NC(=O)C=C)n2)cc1C(N)=O` [Compound I-227, 5-((4-((2-acrylamidophenyl)amino)-5-chloropyrimidin-2-yl)amino)-4-methyl-2-(3-propiolamidopropoxy)benzamide], the EC50 in assay [1] is greater than 1 µM. The half-maximal inhibitory concentration (IC50) at MEK1 activated ERK1 lay in the range of 0.101 to 0.5 µM.

With `C=C(C)C(=O)Nc1cc(F)ccc1Nc1nc(N[C@@H]2CCC[C@H](C(N)=O)C2)ncc1Cl` (racemic) [Compound I-114, Rac-cis-3-((5-chloro-4-((4-fluoro-2-methacrylamidophenyl)amino)pyrimidin-2-yl)amino)cyclohexanecarboxamide], the EC50 in assay [1] is greater than 1 µM. Also, the IC50 at MEK1 activated ERK1 is greater than 1 µM.

Take `C=CC(=O)Nc1ccccc1Nc1nc(Nc2cc(C(=O)NOC)ccc2OC)ncc1C(F)(F)F` [Compound I-67, 3-((4-((2-Acrylamidophenyl)amino)-5-(trifluoromethyl)pyrimidin-2-yl)amino)-N,4-dimethoxybenzamide]: the EC50 in assay [1] is 0.501 to 0.999 µM. The 50% inhibitory concentration (IC50) at MEK1 activated ERK1 was 0.101 to 0.5 µM.
